Results: patent US20040186166A1, “Cannabinoid analogs as peroxisome proliferator activated nuclear receptor gamma activators” (priority 2002, published 2004)

Key:
PPARγ ΔAF2 mutant = molecular target: T1, PPARγ ΔAF2 mutant (Mus musculus, UniProt P37238); assay: PPRE-Luc reporter assay, AF-2 helix-truncated PPARγ; type: cell-based
T1 construct: introduce a stop codon and a NheI restriction site after amino acid 489; expressed in transfected cells; host or cells: HEK293
T1 sequence (P37238 1-459 isoform P37238-2): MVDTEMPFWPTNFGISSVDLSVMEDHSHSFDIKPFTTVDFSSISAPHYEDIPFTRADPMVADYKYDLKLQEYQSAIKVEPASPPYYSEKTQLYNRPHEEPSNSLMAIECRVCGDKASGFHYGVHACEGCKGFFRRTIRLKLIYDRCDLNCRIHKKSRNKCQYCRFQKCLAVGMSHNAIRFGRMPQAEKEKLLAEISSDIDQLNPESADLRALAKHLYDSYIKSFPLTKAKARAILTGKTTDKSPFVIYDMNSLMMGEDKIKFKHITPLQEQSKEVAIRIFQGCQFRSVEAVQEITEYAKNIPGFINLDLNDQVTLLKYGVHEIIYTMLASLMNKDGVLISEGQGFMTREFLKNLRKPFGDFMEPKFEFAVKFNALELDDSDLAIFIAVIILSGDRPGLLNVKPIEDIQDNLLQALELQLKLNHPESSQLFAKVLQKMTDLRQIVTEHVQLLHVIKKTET
From the text: The-pCMX-Gal4-mPPARγ1 was constructed by fusing the mPPARγ1 coding sequence to the yeast GAL4 DNA binding domain (amino acid 1-147) in the pCMX vector. The AF-2 helix-truncated mutant of mPPARγ1 (PPARγ ΔAF2) was generated by PCR amplification-to introduce a stop codon and a NheI restriction site after amino acid 489, and then-subcloned into the pCMX vector. The PPRE-TK-LUC, MH100-TK-LUC-and DR1-TK-LUC reporters have been described previously (Forman et al., Cell 83:803-812, 1995; Umesono et al., Cell 65:1255-1266, 1991).
For PPARγ activation assay, HEK293 cells were plated in 12-well cell culture plates and maintained in Dulbecco's modified Eagle's medium (DMEM) supplemented with 10% fetal bovine serum (FBS) at 37° C. under 5% CO2. Cells were changed to phenol red-free DMEM supplemented with 10% charcoal-stripped fetal bovine serum 3 hours before transfection by a standard calcium-phosphate precipitation method. Twelve hours after transfection, the cells were washed with phosphate-buffered saline (PBS) and fed again with fresh medium containing the indicated concentrations of compounds. After 36 hours, cells were harvested for β-galactosidase and luciferase activities as described previously (Li et al., Proc Natl Acad Sci USA 94:8479-84, 1997). The average normalized luciferase activity was determined via triplicate experiments. […]

3T3 L1 fibroblasts = assay: Adipocyte differentiation assay, Oil Red O staining; type: cell-based; settings: 20 μM AJA, 10 days, 10 μg/ml insulin
Description: The adipocyte differentiation assay was performed as described by Mukherjee et. al. (Mol Endocrinol 14: 1425-33, 2000). The 3T3 L1 cells (American Type Culture Collection) were cultured in DMEM media supplemented with 10% calf serum. Two days after reaching confluence, cells were treated with AJA, GW347845, or vehicle (0.1% DMSO) in the presence of 10 μg/ml insulin every other day. After 10 days of treatment with AJA or 7 days with GW347845 at confluence, cells were fixed and stained with Oil Red O (Sigma). For RT-PCR, total cellular RNAs were isolated by TRIzol (Gibco). Reverse transcriptase polymerase chain reaction (RT-PCR) was performed using the superscript first-strand synthesis kit (Invitrogen). After first-strand cDNA was synthesized by use of oligo (dT), cDNA was amplified by PCR. […]
3T3 L1 fibroblasts cells were cultured in DMEM supplemented with 10% calf serum. […] The cells were treated for 10 days with AJA, or 7 days with GW347845, and lipid accumulation in cells was assessed by Oil Red O staining.

SMILES: CCCCCCC(C)(C)c1cc(O)c2c(c1)OC(C)(C)[C@@H]1CC=C(C(=O)O)C[C@@H]21 [AJA, dimethylheptyl-THC-11-oic acid]
- activation of PPRE-Luc reporter through PPARγ ΔAF2 mutant (PPARγ ΔAF2 mutant): failed to activate expression of the reporter gene
- lipid accumulation, Oil Red O staining (3T3 L1 fibroblasts): dramatic increase in lipid droplet staining
